Measurements taken from EPA's ToxRefDB 2.

What was measured:
rat [1] = details: Subchronic oral toxicity in rodents, other, Gavage/Intubation, dose end: 92 day, group: systemic, systemic / in life observation / clinical signs / respiration (rales) + systemic / in life observation / mortality / mortality + systemic / …
rabbit [2] = details: Sub-acute dermal toxicity, new zealand white, Topical, dose end: 21 day, group: systemic, systemic / in life observation / clinical signs / erythema + systemic / pathology gross / skin / discolored + systemic / pathology gross / …
mouse [3] = details: Carcinogenicity; cd1; Oral; Feed; dose end: 18 month; group: systemic; systemic / pathology microscopic / liver / vacuolization + systemic / pathology microscopic / seminal vesicle / distended + systemic / …
rat [4] = details: Prenatal developmental toxicity study, other, Oral, Gavage/Intubation, dose end: 16 GD
rabbit [5] = details: Prenatal developmental toxicity study, new zealand white, Oral, Gavage/Intubation, dose end: 19 GD
rat [6] = details: Combined chronic toxicity/carcinogenicity, other, Oral, Feed, dose end: 24 month, group: systemic
dog [7] = details: Chronic toxicity; beagle; Oral; Feed; dose end: 52 week; group: systemic; systemic / clinical chemistry / cholesterol / cholesterol
rat [8] = details: Prenatal developmental toxicity study, other, Oral, Gavage/Intubation, dose end: 16 GD; remark: listed apart in the source
hamster = details: Multigenerational reproductive toxicity study, golden syrian, Oral, Gavage/Intubation, dose end: 1 generation
dog [9] = details: Chronic toxicity; beagle; Oral; Feed; dose end: 24 month; group: systemic; systemic / clinical chemistry / alanine aminotransferase (alt/sgpt) / alanine aminotransferase (alt/sgpt) + systemic / clinical chemistry / …
rat [10] = details: Sub-acute dermal toxicity, sprague dawley, Topical, dose end: 28 day, group: systemic
rat [11] = details: Multigenerational reproductive toxicity study, long evans, Oral, Gavage/Intubation, dose end: 1 generation
dog [12] = details: Subchronic oral toxicity in nonrodent, beagle, Feed, dose end: 13 week, group: systemic
dog [13] = details: Chronic toxicity, beagle, Oral, Feed, dose end: 12 month, group: systemic
rat [14] = details: Multigenerational reproductive toxicity study, sprague dawley, Oral, Feed, dose end: 2 generation
rabbit [15] = details: Prenatal developmental toxicity study, new zealand white, Oral, Capsule, dose end: 18 GD
mouse [16] = details: Combined chronic toxicity/carcinogenicity, cd1, Oral, Feed, dose end: 89 week, group: systemic
rat [17] = details: Combined chronic toxicity/carcinogenicity; sprague dawley; Oral; Feed; dose end: 115 week; group: systemic; systemic / in life observation / body weight / body weight
[18] = group: developmental, developmental / developmental malformation / bone / short + developmental / developmental malformation / bone / supernumerary
[19] = group: developmental, developmental / developmental malformation / bone / short + developmental / developmental malformation / bone / supernumerary + …
[20] = group: maternal, systemic / in life observation / body weight / body weight gain + systemic / in life observation / food consumption / food consumption
[21] = group: maternal, systemic / in life observation / body weight / body weight gain + systemic / in life observation / food consumption / food consumption + …
[22] = group: developmental, developmental / developmental malformation / other / other
[23] = group: maternal, reproductive / reproductive performance / postimplantation loss / postimplantation loss + reproductive / reproductive performance / …
[24] = systemic / organ weight / brain / absolute + systemic / organ weight / brain / relative to body weight
[25] = group: developmental, developmental / developmental malformation / bone / bipartite ossification + developmental / developmental malformation / bone / dumbbell …
[26] = group: maternal, systemic / organ weight / liver / absolute
[27] = group: offspring, systemic / in life observation / body weight / offspring (pup) weight
[28] = group: parental, systemic / pathology gross / kidney / enlarged + systemic / pathology gross / liver / enlarged + systemic / pathology gross / sperm measure…
[29] = systemic / pathology microscopic / epididymis / hypospermia + systemic / pathology microscopic / testes / degeneration
[30] = systemic / pathology microscopic / epididymis / hypospermia + systemic / pathology microscopic / testes / degeneration + systemic / …
[31] = group: parental, systemic / organ weight / epididymis / absolute + systemic / organ weight / testes / absolute + systemic / pathology gross / sperm measure…
[32] = group: parental, systemic / pathology gross / sperm measure / sperm count + systemic / pathology microscopic / testes / atrophy
[33] = group: reproductive, reproductive / reproductive performance / pregnancy / pregnancy + reproductive / reproductive performance / resorptions / resorptions + …
[34] = systemic / in life observation / food consumption / food consumption + systemic / clinical chemistry / cholesterol / cholesterol + systemic…
[35] = systemic / pathology microscopic / lung / [other] + systemic / in life observation / clinical signs / inappetence + systemic / in life …
[36] = group: offspring, systemic / organ weight / liver / relative to body weight
[37] = group: parental, systemic / organ weight / kidney / relative to body weight
[38] = group: developmental, developmental / developmental malformation / bone / irregular ossification
[39] = group: maternal, reproductive / reproductive performance / aborted / aborted + systemic / in life observation / clinical signs / ataxia
[40] = group: maternal, reproductive / reproductive performance / aborted / aborted + systemic / in life observation / clinical signs / ataxia + systemic / in life …
[41] = systemic / in life observation / mortality / mortality

O=C(CBr)c1ccc(O)cc1 [2-Bromo-4-hydroxyacetophenone]
LEL (rat [1]): 30 mg/kg/day | LOAEL (rat [1]): 30 mg/kg/day | NEL (rat [1]): 6 mg/kg/day | NOAEL (rat [1]): 6 mg/kg/day | LEL (rabbit [2]): 20 mg/kg/day | LOAEL (rabbit [2]): 20 mg/kg/day | NEL (rabbit [2]): < 20 mg/kg/day | NOAEL (rabbit [2]): < 20 mg/kg/day

CCC(C)n1c(=O)[nH]c(C)c(Br)c1=O (stereo not given) [Bromacil]
LEL (mouse [3]): 36 mg/kg/day | LOAEL (mouse [3]): 36 mg/kg/day | NEL (mouse [3]): < 36 mg/kg/day | NOAEL (mouse [3]): < 36 mg/kg/day | LEL (rat [4]; [18]): 200 mg/kg/day | LOAEL (rat [4]; [18]): 200 mg/kg/day | NEL (rat [4]; [19]): 75 mg/kg/day | NOAEL (rat [4]; [19]): 75 mg/kg/day | LEL (rat [4]; [20]): 75 mg/kg/day | LOAEL (rat [4]; [20]): 75 mg/kg/day | NEL (rat [4]; [21]): 20 mg/kg/day | NOAEL (rat [4]; [21]): 20 mg/kg/day | LEL (rabbit [5]; [22]): 500 mg/kg/day | LOAEL (rabbit [5]; [22]): > 500 mg/kg/day | NEL (rabbit [5]; [22]): 300 mg/kg/day | NOAEL (rabbit [5]; [22]): ≥ 500 mg/kg/day | LEL (rabbit [5]; [23]): 300 mg/kg/day | LOAEL (rabbit [5]; [23]): 300 mg/kg/day | NEL (rabbit [5]; [23]): 100 mg/kg/day | NOAEL (rabbit [5]; [23]): 100 mg/kg/day | LOAEL (rat [6]; systemic / in life observation / body weight / body weight gain): 9.82 mg/kg/day | NOAEL (rat [6]; systemic / in life observation / body weight / body weight gain + systemic / in life observation / body weight / body weight + systemic / …): 1.96 mg/kg/day | LEL (rat [6]; [24]): 1.96 mg/kg/day | NEL (rat [6]; [24]): < 1.96 mg/kg/day

COC(=O)Nc1nc2ccccc2[nH]1 [Carbendazim]
LEL (dog [7]): 16.5 mg/kg/day | LOAEL (dog [7]): 16.5 mg/kg/day | NEL (dog [7]): 6.43 mg/kg/day | NOAEL (dog [7]): 6.43 mg/kg/day | LEL (rat [8]; [25]): 20 mg/kg/day | LOAEL (rat [8]; [25]): 20 mg/kg/day | NEL (rat [8]; [25]): 10 mg/kg/day | NOAEL (rat [8]; [25]): 10 mg/kg/day | LOAEL (rat [8]; [26]): 90 mg/kg/day | NEL (rat [8]; [26]): 20 mg/kg/day | NOAEL (rat [8]; [26]): 20 mg/kg/day | LEL (rat [8]; group: maternal, systemic / organ weight / liver / absolute + reproductive / offspring survival early / live fetuses / live fetuses + reproductive / …): 90 mg/kg/day | LEL (hamster; [27]): 400 mg/kg/day | LOAEL (hamster; [27]): > 400 mg/kg/day | NEL (hamster; [27]): < 400 mg/kg/day | NOAEL (hamster; [27]): ≥ 400 mg/kg/day | LEL (hamster; [28]): 400 mg/kg/day | LOAEL (hamster; [28]): > 400 mg/kg/day | NEL (hamster; [28]): < 400 mg/kg/day | NOAEL (hamster; [28]): ≥ 400 mg/kg/day | LEL (dog [9]): 12.5 mg/kg/day | LOAEL (dog [9]): 12.5 mg/kg/day | NEL (dog [9]): 2.5 mg/kg/day | NOAEL (dog [9]): 2.5 mg/kg/day | LEL (rat [10]; [29]): 120 mg/kg/day | LOAEL (rat [10]; [29]): 120 mg/kg/day | NEL (rat [10]; [30]): 20 mg/kg/day | NOAEL (rat [10]; [30]): 20 mg/kg/day | LOAEL (rat [11]; [31]): > 400 mg/kg/day | NOAEL (rat [11]; [31]): ≥ 400 mg/kg/day | LEL (rat [11]; [32]): 50 mg/kg/day | NEL (rat [11]; [32]): < 50 mg/kg/day | LEL (rat [11]; group: reproductive, reproductive / reproductive performance / pregnancy / pregnancy + reproductive / offspring survival early / litter viability other / litter …): 200 mg/kg/day | NEL (rat [11]; group: reproductive, reproductive / reproductive performance / pregnancy / pregnancy + reproductive / reproductive performance / resorptions / resorptions): 100 mg/kg/day | LOAEL (rat [11]; [33]): > 400 mg/kg/day | NOAEL (rat [11]; [33]): ≥ 400 mg/kg/day | LOAEL (dog [12]; systemic / clinical chemistry / cholesterol / cholesterol + systemic / pathology microscopic / liver / [other]): 35 mg/kg/day | LEL (dog [12]; systemic / in life observation / food consumption / food consumption + systemic / clinical chemistry / cholesterol / cholesterol): 11.3 mg/kg/day | NEL (dog [12]; [34]): 2.7 mg/kg/day | NOAEL (dog [12]; [34]): 11.3 mg/kg/day

COc1c(Cl)ccc(Cl)c1C(=O)O [Dicamba]
NEL (dog [13]; systemic / pathology microscopic / lung / [other]): 2 mg/kg/day | LEL (dog [13]; systemic / pathology microscopic / lung / [other] + systemic / in life observation / clinical signs / inappetence): 11 mg/kg/day | LOAEL (dog [13]; [35]): > 52 mg/kg/day | NOAEL (dog [13]; [35]): ≥ 52 mg/kg/day | LOAEL (rat [14]; [27]): 122 mg/kg/day | NOAEL (rat [14]; group: offspring, systemic / in life observation / body weight / offspring (pup) weight + systemic / organ weight / liver / relative to body weight): 40 mg/kg/day | LEL (rat [14]; [36]): 40 mg/kg/day | NEL (rat [14]; [36]): < 40 mg/kg/day | LEL (rat [14]; [37]): 40 mg/kg/day | NEL (rat [14]; [37]): < 40 mg/kg/day | LOAEL (rat [14]; group: parental, systemic / organ weight / liver / relative to body weight): 419 mg/kg/day | NOAEL (rat [14]; group: parental, systemic / organ weight / liver / relative to body weight + systemic / in life observation / body weight / body weight + systemic / organ …): 122 mg/kg/day | LEL (rabbit [15]; [38]): 300 mg/kg/day | LOAEL (rabbit [15]; [38]): 300 mg/kg/day | NEL (rabbit [15]; [38]): 150 mg/kg/day | NOAEL (rabbit [15]; [38]): 150 mg/kg/day | LEL (rabbit [15]; [39]): 150 mg/kg/day | LOAEL (rabbit [15]; [39]): 150 mg/kg/day | NEL (rabbit [15]; [40]): 30 mg/kg/day | NOAEL (rabbit [15]; [40]): 30 mg/kg/day | LOAEL (mouse [16]; [41]): 358 mg/kg/day | NOAEL (mouse [16]; [41]): 108 mg/kg/day | LEL (mouse [16]; systemic / organ weight / kidney / nos): 121 mg/kg/day | NEL (mouse [16]; systemic / organ weight / kidney / nos + systemic / in life observation / body weight / body weight gain): 18.8 mg/kg/day | LEL (rat [17]): 125 mg/kg/day | LOAEL (rat [17]): > 125 mg/kg/day | NEL (rat [17]): 12.5 mg/kg/day | NOAEL (rat [17]): ≥ 125 mg/kg/day
